Experimental data published in patent US20220202872A1, “METHOD FOR GENERATING A THREE-DIMENSIONAL NEUROMUSCULAR ORGANOID IN VITRO” (MAX-DELBRÜCK-CENTRUM FÜR MOLEKULARE MEDIZIN IN DER …, priority 2020, published 2022).
“Also recorded” adds a separate entry of the source.

Assays:
NMOs [1] = assay: Microelectrode array (MEA) recording of whole organoids; format: cell-based, human; conditions: for local (single electrode) firings / synchronous network activity (paired electrode spikes) / rhythmic, central pattern generator-like activity: NMDA and 5-HT applied together; for local (single electrode) firings / synchronous network activity (paired electrode spikes): day 50, FIG. 6G legend: 50 uM NMDA/40 uM 5-HT; for electrical activity triggered by NMDA/5-HT cocktail: cocktail of NMDA (10 uM) and 5-HT (40 uM), applied together; for suppression of electrical activity: APV 50 uM and CNQX 40 uM applied together, glutamate receptor inhibitors
NMOs [2] = assay: Contraction analysis of neuromuscular organoids before and after curare; format: cell-based, human; conditions: curare 10 uM; before vs after treatment
Description: To investigate the functionality of NMJs, the contractile activity of NMOs was measured before and after treatment with Curare (10 uM), a blocker of AChRs.
Video segments of equal length were recorded using a bright-field microscope (DMI1, Leica) in 3 different regions of the same organoid using 20× zoom. To quantify muscle contractions, each movie was analyzed separately where each visible contraction was counted and then averaged for the whole organoid.
To analyze and map organoid muscular contraction, bright field time series images were automatically thresholded using ImageJ software to identify organoid border. A binary stack was created and contractile regions were visually identified. Regions of interest were defined and variations of organoid area (in pixel), used as a proxy of physical contraction, were plotted over the time series.

Compound: NCCc1c[nH]c2ccc(O)cc12 [5-HT, Serotonin]
- local (single electrode) firings (NMOs [1]): increased single firings; also recorded: notable increase
- synchronous network activity (paired electrode spikes) (NMOs [1]): increase in paired electrode spikes; also recorded: dramatic increase
- rhythmic, central pattern generator-like activity (NMOs [1]; day 50 NMOs): central pattern generator-like activity; also recorded: became rhythmic; also recorded: produced rhythmic bursts of electrical activity
- electrical activity triggered by NMDA/5-HT cocktail (NMOs [1]): instantaneously triggered strong activity

Compound: N[C@@H](CCCP(=O)(O)O)C(=O)O [APV]
- suppression of electrical activity (NMOs [1]): reversibly suppressed nearly all electrical activity

Compound: N#Cc1cc2[nH]c(=O)c(=O)[nH]c2cc1[N+](=O)[O-] [CNQX]
- suppression of electrical activity (NMOs [1]): reversibly suppressed nearly all electrical activity

Compound: CN[C@H](CC(=O)O)C(=O)O [NMDA]
- local (single electrode) firings (NMOs [1]): increased single firings; also recorded: notable increase
- synchronous network activity (paired electrode spikes) (NMOs [1]): increase in paired electrode spikes; also recorded: dramatic increase
- rhythmic, central pattern generator-like activity (NMOs [1]; day 50 NMOs): central pattern generator-like activity; also recorded: became rhythmic; also recorded: produced rhythmic bursts of electrical activity
- electrical activity triggered by NMDA/5-HT cocktail (NMOs [1]): instantaneously triggered strong activity

Compound: CC(=O)OCC[N+](C)(C)C [acetylcholine]
- increase of electrical activity (NMOs [1]; acetylcholine 10 uM stimulation, day 50 NMOs): approximately 10 fold

Compound: N[C@@H](CCC(=O)O)C(=O)O [glutamate]
- increase of spontaneous electrical activity (NMOs [1]; acute glutamate 50 uM, day 30 and day 50 organoids): approximately 12 fold

Compound: NC1=N[C@H](O)[C@H]2[C@H]3O[C@]4(O)O[C@@H]([C@@H](O)[C@@]2(N1)[C@@H]4O)[C@]3(O)CO [tetrodotoxin]
- suppression of NMDA/5-HT-triggered activity (NMOs [1]): reversibly suppressed

Compound: curare
- block of acetylcholine-stimulated electrical activity (NMOs [1]; curare 10 uM added after acetylcholine 10 uM, day 50 NMOs): rapidly and reversibly blocked
- contraction of the skeletal muscles (contractile activity of NMOs) (NMOs [2]): blocked the contraction; also recorded: organoid relaxation
